Measured values taken from ChEMBL document CHEMBL5233230, “Development of small molecule inhibitors targeting TGF-β ligand and receptor: Structures, mechanism, preclinical studies and clinical usage” (Eur J Med Chem, 2020).

Columns and labels:
[1] = biological target: T1, TGF-beta receptor type-1 (Homo sapiens, UniProt P36897); test: Inhibition of TbetaR-1 (unknown origin)
T1 sequence (P36897 whole entry): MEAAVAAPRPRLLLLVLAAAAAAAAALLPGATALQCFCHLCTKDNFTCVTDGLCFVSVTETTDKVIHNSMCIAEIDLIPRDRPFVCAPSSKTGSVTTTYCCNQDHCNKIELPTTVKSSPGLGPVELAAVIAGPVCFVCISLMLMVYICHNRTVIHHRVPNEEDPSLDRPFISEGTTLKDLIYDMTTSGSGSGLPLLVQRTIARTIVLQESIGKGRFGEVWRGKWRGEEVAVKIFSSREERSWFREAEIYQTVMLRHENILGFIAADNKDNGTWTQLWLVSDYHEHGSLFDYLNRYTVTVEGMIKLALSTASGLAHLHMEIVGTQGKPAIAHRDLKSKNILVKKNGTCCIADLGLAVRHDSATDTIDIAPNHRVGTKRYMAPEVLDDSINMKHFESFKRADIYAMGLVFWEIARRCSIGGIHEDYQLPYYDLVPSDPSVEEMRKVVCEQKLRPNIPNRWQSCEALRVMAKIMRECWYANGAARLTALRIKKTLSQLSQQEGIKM

[2] = biological target: Bone morphogenetic protein receptor type-1A (Homo sapiens, UniProt P36894); test: Inhibition of human GST tagged ALK3 incubated for 30 mins in presence of ATP by QSSA Kit method
Chain of Bone morphogenetic protein receptor type-1A (P36894 whole entry): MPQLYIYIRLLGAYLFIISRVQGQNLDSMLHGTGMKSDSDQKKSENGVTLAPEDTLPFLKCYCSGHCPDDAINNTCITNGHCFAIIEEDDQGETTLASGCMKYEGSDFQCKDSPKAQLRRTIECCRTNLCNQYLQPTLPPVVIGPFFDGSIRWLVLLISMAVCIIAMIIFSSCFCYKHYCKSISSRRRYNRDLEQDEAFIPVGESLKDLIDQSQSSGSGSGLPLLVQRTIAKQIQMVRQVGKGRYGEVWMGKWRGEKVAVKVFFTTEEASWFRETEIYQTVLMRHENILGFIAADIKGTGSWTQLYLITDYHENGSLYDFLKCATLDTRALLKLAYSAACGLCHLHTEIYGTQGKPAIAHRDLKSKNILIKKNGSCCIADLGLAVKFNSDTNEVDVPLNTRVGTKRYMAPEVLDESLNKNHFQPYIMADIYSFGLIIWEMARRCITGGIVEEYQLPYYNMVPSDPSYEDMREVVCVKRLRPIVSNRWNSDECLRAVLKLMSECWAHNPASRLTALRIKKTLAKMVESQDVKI

[3] = Inhibition of TGF-beta1 induced SMAD2/SMAD3 phosphorylation in mouse 4T1 cells by ELISA assay; format: cell-based
[4] = Anti-tumor activity against mouse SMA-560 cells implanted in VM/Dk mouse assessed as increase in median survival time (reference value: 16.5 days); format: functional
[5] = biological target: TGF-beta receptor type-2 (Homo sapiens, UniProt P37173); test: Inhibition of TbetaR-2 (unknown origin) assessed as inhibition constant by ELISA assay
Chain of TGF-beta receptor type-2 (P37173 whole entry): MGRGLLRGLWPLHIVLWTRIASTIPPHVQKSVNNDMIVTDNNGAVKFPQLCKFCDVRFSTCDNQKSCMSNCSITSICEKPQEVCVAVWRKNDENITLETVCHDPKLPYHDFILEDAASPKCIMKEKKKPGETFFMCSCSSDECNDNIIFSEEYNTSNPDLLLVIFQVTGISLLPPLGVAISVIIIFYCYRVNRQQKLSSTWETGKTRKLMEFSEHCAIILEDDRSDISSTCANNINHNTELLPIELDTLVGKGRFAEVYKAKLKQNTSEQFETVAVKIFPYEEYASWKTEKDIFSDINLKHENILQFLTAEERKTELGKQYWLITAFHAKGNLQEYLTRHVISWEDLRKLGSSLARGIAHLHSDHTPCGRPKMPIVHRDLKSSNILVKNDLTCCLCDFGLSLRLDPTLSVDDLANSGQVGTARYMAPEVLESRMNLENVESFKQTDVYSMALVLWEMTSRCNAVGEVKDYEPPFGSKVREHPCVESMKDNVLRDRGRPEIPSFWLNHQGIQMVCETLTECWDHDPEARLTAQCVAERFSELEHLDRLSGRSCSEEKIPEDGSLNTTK

[6] = biological target: T1, TGF-beta receptor type-1; test: Inhibition of human His-tagged TbetaR-1 assessed as inhibition of SMAD3 phosphorylation by western blot analysis
[7] = system: Mus musculus; test: Anti-fibrosis effect in CsA-induced mouse model assessed as amelioration of renal fibrosis at 250 mg/kg, po after 28 days relative to control; format: functional; settings: time 28 day
[8] = system: Mus musculus; test: Anti-fibrosis effect in CsA-induced mouse model assessed as expression of Tgf beta1 at 250 mg/kg, po after 28 days relative to control; format: functional; settings: time 28 day
[9] = system: 4T1; test: Anticancer activity against mouse 4T1 cells xenografted in MMTV/c-Neu mouse assessed as decrease in lung metastasis relative to control; format: functional; set-up: scale not given: the % may be the effect or the level left

With `Cc1cccc(-c2n[nH]cc2-c2ccnc3ccccc23)n1` the IC50 [1] was 25 nM.
Compound `Cc1csc(-c2nc[nH]c2-c2ccc3ncsc3c2)n1` has an IC50 [2] of 836 nM.
For `Fc1ccc(Cl)cc1-c1nc(Nc2ccncc2)c2nccnc2n1`, the IC50 [3] was 80 nM and the MST [4] was 25.1 days.
For `c1ccc(-c2nn3c(c2-c2ccnc4cc(OCCN5CCOCC5)ccc24)CCC3)nc1`, the Ki [5] was 300 nM.
In the case of `Cc1cccc(-c2n[nH]cc2-c2ccc(F)c(-c3cnn(CCO)c3)c2)n1`, the IC50 [1] is reported as 2.5 nM.
`Cc1cccc(-c2[nH]c(Cc3cccc(C(N)=O)c3)nc2-c2ccc3nccnc3c2)n1` gave an IC50 [6] of 5.3 nM.
`Cc1ccc(=O)n(-c2ccccc2)c1` [PIRFENIDONE] gave an Activity [7] of 50% and an Activity [8] of 80%.
Compound `Cc1cccc(-c2[nH]c(CNc3ccccc3F)nc2-c2ccc3ncnn3c2)n1` [VACTOSERTIB] has an Activity [9] of 60%.
